Test results reported in patent US5212179A, “Piperidine derivatives” (John Wyeth and Brother Limited, priority 1980, dated 1993).
pIC50: −log10 of the molar value.

Tests used:
[1] = test system: 5-hydroxy-L-tryptophan (5-HTP) induced behavioural syndrome; assay: Potentiation of 5-HTP induced behavioural syndrome, dose/response study in mice; format: in vivo; conditions: Mus musculus, po, 5-HTP 80 mg/kg i.p.
Protocol: (§1) Thus, this test can be used as an indication of in vivo 5-HT uptake inhibition.
a) Dose/response study in mice
Groups of 12 (2 subgroups of 6) female mice (18-22g) were used per dose, each group being housed in a separate cage for the duration of the experiment. Mice were dosed p.o. with either test compound or vehicle (0.5% HPMC) and 30 minutes later received a threshold dose of 5-HTP (80 mg/kg i.p.) and were placed in perspex cylinders (12" diameter).
The dose that produced the syndrome in 50% of the mice was calculated using the method of Litchfield and Wilcoxon, […]

[2] = test system: 5-hydroxy-L-tryptophan (5-HTP) induced behavioural syndrome; assay: Potentiation of 5-HTP induced behavioural syndrome, dose/response study in rats; format: in vivo; conditions: Rattus norvegicus, ip, 5-HTP 70 mg/kg i.p.
Protocol: as §1
b) Dose/Response study in rats
Groups of 6 male rats (150 g) were dosed with test compound suspended in HPMC. Thirty minutes later 5-HTP (70 mg/kg 5 i.p.) was given and the number of signs/rat recorded between 20 and 35 minutes post 5-HTP. Linear regression analysis of the results was performed and the ED50 calculated from this.

[3] = test system: uptake of 5-HT into rat brain synaptosomes; assay: Inhibition of 5-HT uptake into rat brain synaptosomes; format: biochemical, male Sprague Dawley rats
Protocol: (§2) The test procedure involved obtaining synaptosomal preparations from male Sprague Dawley rats according to the method of Grey and Whittaker* as modified by Wood and Wyllie.** Aliquots of the synaptosomal preparation were then incubated with tritrated noradrenaline (NA) or 5-HT at a temperature of 37° C. for 4 minutes. The active synaptosomal accumulation of labelled substrate was measured by filtration and scintillation counting. The effect at a range of concentrations of test compound enabled IC50 values and selectivity ratios to be calculated.
(§3) * Grey and Whittaker,--J. Anat. 96 79 (1962)
(§4) ** Wood and Wyllie, J. Neurochemistry, 37, 795 (1981)

[4] = test system: neuronal uptake of 5-hydroxytryptamine into slices of cerebral cortex; assay: Inhibition of 5-hydroxytryptamine (5-HT) uptake in brain slices; format: biochemical; conditions: rat cerebral cortex slices, relative to imipramine
Protocol: Compounds of formula I were tested for ability to inhibit 5-hydroxytryptamine (5-HT) uptake in brain slices using the following procedure:
Concentration-response curves for the test compound and for the standard agent, imipramine, are obtained. The potency of the test compound is expressed in proportion to that of imipramine. Thus, the potency ratio for the test compound [formula]

[5] = test system: p-chloroamphetamine (pCA) induced hyperactivity; assay: Inhibition of p-chloroamphetamine (pCA) induced hyperactivity in mice; format: in vivo; conditions: Mus musculus, po, female mice, 50 mg/kg po, pCA 20 mg/kg ip, 10-30 minutes post pCA
Protocol: The following test procedure was used to test for ability to inhibit p-chloroamphetamine induced hyperactivity.
Three groups of 4 female mice (20-24 g) receive the test compounds (50 mg/kg po) and a fourth group the requisite volume of vehicle. Thirty minutes later all the animals are given 20 mg/kg p-chloroamphetamine (pCA) ip. The grouped mice are placed immediately in square plastic cages in activity monitors and their motor activity recorded over the period 10-30 minutes post pCA. This procedure is repeated three more times so that four groups of mice are used per treatment and each activity monitor is used with all treatments in turn. The inhibition of pCA induced hyperactivity is calculated thus: [formula] where C=mean activity of control groups 10-30 minutes post pCA.
T=mean activity of treated groups 10-30 minutes post pCA.
This test is used as an in vivo screen for detection of 5-hydroxytryptamineuptake inhibitors.
Compounds giving >50% inhibition are considered of special interest. In such a test the following compounds were particularly active: […]

[6] = test system: uptake of ^3 H noradrenaline into rat brain synaptosomes; assay: Inhibition of 3H noradrenaline uptake into rat brain synaptosomes; format: biochemical, male Sprague Dawley rats; conditions: 37° C., 4 minutes, read-out: IC50 NA uptake
Protocol: as §2, §3, §4

[7] = test system: p-chloroamphetamine (pCA)-induced stereotypy; assay: Inhibition of p-chloroamphetamine (pCA)-induced stereotypy in rats; format: in vivo, male Sprague-Dawley rats; conditions: for ED50: Rattus norvegicus, po, 90 minutes before pCA 10 mg/kg i.p., results for succinate salt corrected for amount of active material, read-out: ED50 (dose required to produce 50% inhibition of pCA induced stereotypy); for ED50 / antagonism of pCA-induced stereotypy (in words): rats, p.o.; for antagonism of pCA-induced stereotypy (in words): 5 dose levels
Protocol: Representative compounds of formula IA were tested for their ability to inhibit pCA induced syndrome in rats by the standard procedure described below:
Inhibition of p-chloroamphetamine (pCA)-induced stereotypy
Vehicle or drug (5 dose levels) were administered p.o. to six groups of 6-8 male Sprague-Dawley rats (300-400 g) followed, 90 minutes later, by pCA (10 mg/kg i.p.). The animals were then placed in individual observation chambers and, 30 minutes after pCA administration, the intensity of the pCA-induced 5-HT syndrome was assessed according to the following scoring system: […]
Therefore, the maximum score for each animal was 10.
The inhibition of pCA induced stereotypy is calculated for each dose level as follows: [formula] where C=control group total score at 30 minutes post pCA.
T=group total score of treated group at 30 minutes post pCA.
For each dose a % effect is calculated.
The results obtained from the tests using 5 different dose levels of the drug allow the ED50 value (i.e. the dose required to produce 50% inhibition of pCA induced stereotypy) to be calculated.
The test was carried out using the free bases for compound C. Compound B was tested in the form of the succinate salt and the results corrected for amount of active material.

[8] = test system: 5-hydroxy-L-tryptophan induced behavioural syndrome; assay: Potentiation of 5-hydroxytryptophan (5-HTP)-induced behaviour in rats; format: in vivo, male Sprague-Dawley rats; conditions: Rattus norvegicus, po, 5-HTP 50 mg/kg s.c., citrate salt, corrected for amount of base
Protocol: The compound (C) was also tested for its ability to potentiate 5-hydroxy-L-tryptophan induced behavioural syndrome in rats. The test procedure is described below
Potentiation of 5-hydroxytryptophan (5-HTP)-induced behaviour
Groups of 10 male Sprague-Dawley rats (310-360 g) were dosed p.o. with vehicle or drugs. Ninety minutes later 5-HTP (50 mg/kg s.c.) was administered and the animals placed in individual observation chambers (peripheral decarboxylation was prevented by 25 mg/kg i.p. carbidopa administered 60 minutes before 5-HTP). Head shakes were counted over the period 30-45 minutes after 5-HTP and the intensity of the 5-HT syndrome was scored immediately afterwards using the system described for the pCA procedure above. Percentage potentiation of syndrome was calculated as follows: […]
Percentage potentiation was calculated from the following: [formula]

O=C(NC(=O)c1ccccc1)NC1CCN(Cc2ccc3ccccc3c2)CC1 [Example 1, 1-Benzoyl-3-[1-(naphth-2-ylmethyl)piperid-4-yl]urea] was tested, and the ED50 [1] was 7.2 mg/kg, the ED50 [2] was 5.3 mg/kg and the “Selectivity Ratio” value ([3]; 5-HT uptake relative to NA uptake) was 455. For the same compound, the pIC50 ([3]; 37° C., 4 minutes) was 7.36, the “potency ratio (imipramine=1.0)” value [4] was 8.8 and the inhibition in vivo at 50 mg/kg [5] was 67.5%. For the same compound, the pIC50 [6] was 4.70.

O=C(NC(=O)c1ccccc1)NC1CCN(Cc2cccc3ccccc23)CC1 [Example 2, 1-Benzoyl-3-[1-(naphth-1-ylmethyl)piperid-4-yl]urea] showed an inhibition in vivo at 50 mg/kg [5] of 56.4%.

CC(C)c1ccc(CN2CCC(NC(=O)NC(=O)c3ccccc3)CC2)cc1 [Example 3, 1-Benzoyl-3-[1-(4-isopropylbenzyl)piperid-4-yl]urea] was tested, and the inhibition in vivo at 50 mg/kg [5] was 49%.

In the case of Cc1ccc(CN2CCC(NC(=O)NC(=O)c3ccccc3)CC2)cc1C [Example 6, 1-Benzoyl-3-[1-(3,4-dimethylbenzyl)piperid-4-yl]urea], the inhibition in vivo at 50 mg/kg [5] was 68.9%.

Compound O=C(NC(=O)c1ccccc1)NC1CCN(Cc2ccc3c(c2)CCCC3)CC1 [Example 14, 1-Benzoyl-3-[1-(5,6,7,8-tetrahydro-naphth-2-ylmethyl)piperid-4-yl]urea] has an inhibition in vivo at 50 mg/kg [5] of 69.4%.

Work on CCc1ccc(CN2CCC(NC(=O)NC(=O)c3ccccc3)CC2)cc1 [Example 15, 1-Benzoyl-3-[1-(4-ethylbenzyl)piperid-4-yl]urea] yielded an inhibition in vivo at 50 mg/kg [5] of 72.9%.

With O=C(NC(=O)c1ccccc1)NC1CCN(Cc2ccc3c(c2)CCC3)CC1 [Example 20, 1-Benzoyl-3-[1-(indan-5-ylmethyl)-piperid-4-yl]urea] the inhibition in vivo at 50 mg/kg [5] was 59.3%.

Work on CC(c1ccc2ccccc2c1)N1CCC(NC(=O)NC(=O)c2ccccc2)CC1 (centres unmarked) [Example 21, 1-Benzoyl-3-[1-(1-(naphth-2-yl)ethyl)-piperid-4-yl]urea] yielded an inhibition in vivo at 50 mg/kg [5] of 71.7%.

O=C(NC(=O)c1cccnc1)NC1CCN(Cc2ccc3cc(F)ccc3c2)CC1 [Example 62, N[[[1-[(6-Fluoro-2-naphthalenyl)methyl]-4-piperidinyl]amino]carbonyl]-3-pyridinecarboxamide] was tested, and the inhibition of syndrome ([7]; At 50 mg/kg) was 99%, the ED50 [7] was 2.5 mg/kg and the “antagonism of pCA-induced stereotypy (in words)” value [7] was “antagonised pCA-induced stereotypy in a dose-dependent manner”. The ED50 [8] was 5 mg/kg.

In the case of O=C(NC(=O)c1ccncc1)NC1CCN(Cc2ccc3cc(F)ccc3c2)CC1 [Example 63, N-[[[1-[(6-Fluoro-2-naphthalenyl)methyl]-4-piperidinyl]amino]carbonyl]-4-pyridinecarboxamide], the ED50 [7] was 3.8 mg/kg and the “antagonism of pCA-induced stereotypy (in words)” value [7] was “antagonised pCA-induced stereotypy in a dose-dependent manner”.

For CN(C)CCCN1c2ccccc2CCc2ccc(Cl)cc21 [clomipramine, reference compound], the ED50 [1] was 18 mg/kg and the ED50 [2] was 39.2 mg/kg.

With CN(C)CCCN1c2ccccc2CCc2ccccc21 [imipramine, reference compound] the “potency ratio (imipramine=1.0)” value [4] was 1.0.
